Common to all, as to assay: NCI tumour cell line growth inhibition, 48 h
Experiment [1] deals with KM12 colon.
In experiment [2] the test system is 786-0 renal.
Experiment [3] deals with MCF7 breast.
Experiment [4] has as its system TK-10 renal.
Experiment [5] has as its system HOP-62 NSCLC.
Experiment [6] concerns SN12C renal.
Experiment [7] deals with NCI-H226 lung.
Experiment [8] relates to HL-60(TB) leukemia.
Experiment [9] relates to T-47D breast.
The subject of experiment [10] is NCI-H23 lung.

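Method: 48-hour compound exposure of cells in 96-well plates, five concentrations, linear interpolation of endpoints. The concentration for 50% growth inhibition is given as GI50. TGI: concentration producing complete growth inhibition.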

Turning to `CN(C)c1cccc(NC2=NCCO2)c1`, the TGI was 78.6 µM in [1]; more than 100 µM in experiment [2]; more than 100 µM in experiment [3]; more than 100 µM in experiment [4]; more than 100 µM in experiment [5]; more than 100 µM in [6]. The TGI was more than 100 µM in experiment [7], 50.5 µM in experiment [8], more than 100 µM in [9] and 85.3 µM in experiment [10].

Regarding `CC1=NC(=Cc2ccc([N+](=O)[O-])cc2)C(=O)N1n1c(-c2ccccc2)nc2ccccc2c1=O`, the TGI in experiment [1], in [2], in experiment [3], in experiment [4], in experiment [5] and in experiment [6] was more than 100 µM throughout. Also, the TGI is more than 100 µM in [7], 88.4 µM in [8], more than 100 µM in [9] and 81.2 µM in experiment [10].

On to `CN1C(=O)C2(c3ccccc31)N(c1ccc(Cl)cc1)C(=O)C2(c1ccccc1)c1ccccc1` (stereo not drawn), for which the GI50 in experiment [1] is more than 100 µM; in [2] it was more than 100 µM; in experiment [3], 39.6 µM; in experiment [4] it was more than 100 µM; in experiment [5] it was more than 100 µM; in experiment [6] it was 94.3 µM. In addition, the GI50 in [7] was more than 100 µM; in experiment [8], 3.42 µM; in experiment [9], 6.29 µM; in experiment [10], 64.7 µM. In addition, the TGI in experiment [1], in experiment [2], in [3], in experiment [4], in [5] and in experiment [6] was more than 100 µM in each case. Also, the TGI in experiment [7] is more than 100 µM; in [8] it was 16.5 µM; in experiment [9], more than 100 µM; in [10], more than 100 µM.

For `CC(=O)c1c(C)[nH]c(-c2nc3ccc(N4CCN(C)CC4)cc3[nH]2)c1-c1ccccc1`, the GI50 was 1.84 µM in experiment [1]; 1.71 µM in [2]; 0.266 µM in experiment [3]; 0.604 µM in experiment [4]; 1.01 µM in experiment [5]; 2.34 µM in [6]. The GI50 is 1.93 µM in experiment [7], 0.261 µM in experiment [8], 0.703 µM in experiment [9] and 3.02 µM in [10]. Moreover, the TGI in [1] was found to be 32.6 µM; in experiment [2], 20.5 µM; in [3], 13.5 µM; in experiment [4], 27.2 µM; in [5] it was 33.5 µM; in experiment [6], 23.2 µM. Further, the TGI in [7] worked out at 49.5 µM; in experiment [8], 12.7 µM; in [9] it was 36.1 µM; in experiment [10] it was 39.3 µM.

Consider `CC1=C(C(=O)Nc2ccc(Cl)c(C(=O)OC(C)C)c2)SCCO1`, for which the TGI is more than 100 µM in [1]; more than 100 µM in [2]; more than 90.4 µM in experiment [3]; more than 100 µM in experiment [4]; more than 100 µM in experiment [5]; more than 100 µM in [6]. For the same molecule, the TGI in experiment [7] was more than 77.4 µM; in experiment [8], 51 µM; in [9] it was more than 100 µM; in experiment [10], 96.3 µM.

In the case of `CCOC(=O)c1cnc2c(C)cccc2c1Nc1ccc(C(C)=O)cc1`, the GI50 in experiment [1] is 51.2 µM; in [2] it was 16.9 µM; in experiment [3] it was 28 µM; in experiment [4] it was 32.8 µM; in experiment [5], 39.7 µM; in experiment [6], 24.9 µM. Also, the GI50 in experiment [7] is 7.01 µM; in experiment [8], more than 100 µM; in experiment [9], 8.2 µM; in experiment [10] it was 28.5 µM. Moreover, the TGI in [1] was more than 100 µM; in experiment [2] it was 42.3 µM; in [3], more than 100 µM; in experiment [4], 82.9 µM; in experiment [5], more than 100 µM; in [6] it was more than 100 µM. Also, the TGI in experiment [7] is more than 100 µM; in [8], more than 100 µM; in experiment [9] it was 44.9 µM; in [10], more than 100 µM.

For `NS(=O)(=O)OCCCCCCCOS(N)(=O)=O`, the TGI was 1000 µM in experiment [1]; 571 µM in experiment [2]; 1780 µM in experiment [3]; 1920 µM in [4]; 676 µM in [5]; 1180 µM in [6]. Besides, the TGI worked out at 887 µM in experiment [7], 469 µM in experiment [8], 1880 µM in [9] and 795 µM in experiment [10].

Consider `O=C(COc1cccc(/C=C2\CSc3ccccc3C2=O)c1)Nc1nccs1`, for which the GI50 is 1.53 µM in experiment [1]; 3.7 µM in experiment [2]; 0.779 µM in experiment [3]; 2.25 µM in experiment [4]; 11 µM in [5]; 1.76 µM in experiment [6]. Also, the GI50 in experiment [7] was 13.1 µM; in [9], 5.33 µM; in experiment [10], 1.85 µM. Also, the TGI is 2.86 µM in experiment [1]; 13 µM in experiment [2]; 3.54 µM in experiment [3]; 4.89 µM in experiment [4]; 23.2 µM in experiment [5]; 4.46 µM in [6]. The figures for the TGI in experiment [7], in experiment [9] and in experiment [10] were 30.6 µM, 23.9 µM and 8.79 µM, respectively.

With `CC[C@H](C)[C@H](NC(=O)CN(C)C)C(=O)N(C)[C@H](C[C@@H](OC(C)=O)c1nc(C(=O)NC23CC(C(=O)OC)(C2)C3)cs1)C(C)C`, the GI50 in experiment [1] is 0.478 µM; in [2] it was 0.741 µM; in experiment [3], 0.11 µM; in experiment [4], more than 25 µM; in experiment [5], 2.97 µM; in experiment [6], 0.268 µM. Moreover, the GI50 is more than 25 µM in experiment [7], 0.0455 µM in experiment [8], more than 25 µM in experiment [9] and 1.22 µM in experiment [10]. Moreover, the TGI in experiment [1], in experiment [2], in experiment [3], in experiment [4], in [5] and in experiment [6] was more than 25 µM in each case. Further, the TGI was more than 25 µM in experiment [7], 0.181 µM in experiment [8], more than 25 µM in experiment [9] and more than 25 µM in experiment [10].

Source of the values: PubChem BioAssay (NCI).
